The values below come from patent US20160158317A1, “Antimicrobial Peptide Variants and Polynucleotides Encoding Same” (Adenium Biotech A/S, priority 2010, published 2016).

Each structure is given as a SMILES string. Where a SMILES comes first, the peptide text is derived from it. Bridges are numbered along the chain shown (N, C = ends).

A short description of the data set: Determination of the protein binding (90% serum, 30 kDa filter, HPLC). Particulars: serum. The data set is classed as in vitro ADME. How it is done: Protein binding assays were performed as follows. The purified peptides were mixed with 90% serum and centrifuged through a 30 kDa filter. The ultra-filtrate and the non filtrated serum samples were quantified by HPLC measurements and the protein binding was subsequently calculated.
Take `CC(C)[C@@H]1NC(=O)[C@H](CCCCN)NC(=O)[C@H](Cc2c[nH]c3ccccc23)NC(=O)[C@@H](NC(=O)[C@H](Cc2ccccc2)NC(=O)CN)CSSC[C@@H](C(=O)N[C@@H](CC(N)=O)C(=O)O)NC(=O)[C@H](CCCNC(=N)N)NC(=O)[C@H](CCCNC(=N)N)NC(=O)[C@H](Cc2ccc(O)cc2)NC(=O)[C@@H]2CSSC[C@H](NC1=O)C(=O)N[C@@H](C)C(=O)N[C@@H](CCCNC(=N)N)C(=O)N[C@@H](CCCNC(=N)N)C(=O)N[C@@H](CC(N)=O)C(=O)NCC(=O)N[C@@H](C)C(=O)N[C@@H](CCCNC(=N)N)C(=O)N[C@@H](CO)C(=O)N2` [compound 504] (H-GFCWKVCARRNGARSCYRRCN-OH; disulfide 3-20, 7-16 (inferred); N-terminus and C-terminus assumed): the fraction unbound (commonly free concentration divided by total concentration) is 0.05.

As to `CC(C)[C@@H]1NC(=O)CNC(=O)[C@H](CC(N)=O)NC(=O)[C@H](CCCNC(=N)N)NC(=O)[C@H](Cc2ccc(O)cc2)NC(=O)[C@H](C(C)C)NC(=O)[C@@H]2CSSC[C@H](NC(=O)[C@H](C(C)C)NC(=O)[C@H](CCCNC(=N)N)NC1=O)C(=O)N[C@@H](Cc1ccc(O)cc1)C(=O)N[C@@H](CCCNC(=N)N)C(=O)N[C@@H](CCCNC(=N)N)C(=O)N[C@H](C(=O)N[C@@H](CC(N)=O)C(=O)O)CSSC[C@H](NC(=O)[C@H](Cc1ccccc1)NC(=O)CN)C(=O)N[C@@H](Cc1c[nH]c3ccccc13)C(=O)N[C@@H](CCCCN)C(=O)N[C@@H](C(C)C)C(=O)N2` [compound 10] (H-GFCWKVCVYRNGVRVCYRRCN-OH; disulfide 3-20, 7-16 (inferred); N-terminus and C-terminus assumed), the fraction unbound is 0.36.

`CC(C)C[C@@H]1NC(=O)CNC(=O)[C@H](CC(N)=O)NC(=O)[C@H](CCCNC(=N)N)NC(=O)[C@H](CCCNC(=N)N)NC(=O)[C@H](C)NC(=O)[C@@H]2CSSC[C@H](NC(=O)[C@H](CO)NC(=O)[C@H](CCCNC(=N)N)NC1=O)C(=O)N[C@@H](Cc1ccc(O)cc1)C(=O)N[C@@H](CCCNC(=N)N)C(=O)N[C@@H](CCCNC(=N)N)C(=O)N[C@H](C(=O)N[C@@H](CC(N)=O)C(=O)O)CSSC[C@H](NC(=O)[C@H](Cc1ccccc1)NC(=O)CN)C(=O)N[C@@H](Cc1c[nH]c3ccccc13)C(=O)N[C@@H](Cc1ccc(O)cc1)C(=O)N[C@@H](C(C)C)C(=O)N2` [compound 453] (H-GFCWYVCARRNGLRSCYRRCN-OH; disulfide 3-20, 7-16 (inferred); N-terminus and C-terminus assumed) had a fraction unbound of 0.08.

Turning to `CC(C)[C@@H]1NC(=O)CNC(=O)[C@H](CC(N)=O)NC(=O)[C@H](CCCNC(=N)N)NC(=O)[C@H](CCCCN)NC(=O)[C@H](C(C)C)NC(=O)[C@@H]2CSSC[C@H](NC(=O)[C@H](C(C)C)NC(=O)[C@H](CCCNC(=N)N)NC1=O)C(=O)N[C@@H](Cc1ccc(O)cc1)C(=O)N[C@@H](CCCNC(=N)N)C(=O)N[C@@H](CCCNC(=N)N)C(=O)N[C@H](C(=O)N[C@@H](CC(N)=O)C(=O)O)CSSC[C@H](NC(=O)[C@H](Cc1ccccc1)NC(=O)CN)C(=O)N[C@@H](Cc1c[nH]c3ccccc13)C(=O)N[C@@H](CC(N)=O)C(=O)N[C@@H](C)C(=O)N2` [compound 258] (H-GFCWNACVKRNGVRVCYRRCN-OH; disulfide 3-20, 7-16 (inferred); N-terminus and C-terminus assumed), the fraction unbound was 0.11.

`CC(C)[C@@H]1NC(=O)CNC(=O)[C@H](CC(N)=O)NC(=O)[C@H](CCCNC(=N)N)NC(=O)[C@H](Cc2ccc(O)cc2)NC(=O)[C@H](C)NC(=O)[C@@H]2CSSC[C@H](NC(=O)[C@H](C)NC(=O)[C@H](CCCNC(=N)N)NC1=O)C(=O)N[C@@H](Cc1ccc(O)cc1)C(=O)N[C@@H](CCCNC(=N)N)C(=O)N[C@@H](CCCNC(=N)N)C(=O)N[C@H](C(=O)N[C@@H](CC(N)=O)C(=O)O)CSSC[C@H](NC(=O)[C@H](Cc1ccccc1)NC(=O)CN)C(=O)N[C@@H](Cc1c[nH]c3ccccc13)C(=O)N[C@@H](CCCNC(=N)N)C(=O)N[C@@H](C)C(=O)N2` [compound 418] (H-GFCWRACAYRNGVRACYRRCN-OH; disulfide 3-20, 7-16 (inferred); N-terminus and C-terminus assumed) showed a fraction unbound of 0.08.
